Assay results published in patent US11642332B2, “(2R,4R)-5-(5′-chloro-2′-fluorobiphenyl-4-yl)-2-hydroxy-4-[(5-methyloxazole-2-carbonyl)amino]pentanoic acid” (THERAVANCE BIOPHARMA R&D IP, LLC, priority 2015, dated 2023).

Experiments:
[1] = IV/PO pharmacokinetic study in dogs; type: in vivo, male beagle dogs; set-up: AUC(0-t): concentration or dose not given beside the values; conditions: dog; for AUC(0-t) / bioavailability: male, beagle, plasma; for AUC(0-t): read-out: AUClast Mean; for bioavailability: PO vs IV AUClast
Experimental: (§1) Each rat or dog PK study began with formulation of the test compound. Appropriate masses of each test compound were added into a volume of vehicle (e.g. 5% sodium bicarbonate, 5% dextrose in H2O) such that the final concentration of each compound was appropriate to be dosed at 2 mL/kg. Although a homogenous suspension were acceptable for oral dosing, intravenous dosing solutions were sterile-filtered (0.2 μm) prior to dosing to ensure no particulates were administered.
In the dog study, male beagle dogs (3 per route) housed at Agilux Laboratories (Worcester, Mass.) and weighing between 7-12 kg received either a single oral gavage or a single intravenous (via indwelling catheter) dose of the dosing solution. The final dose was typically 0.1-2 mg/kg. Serial blood samples were harvested via direct venipuncture at 3 minutes, 15 minutes, 30 minutes, 1 hour, 2 hours, 4 hours, 6 hours, 8 hours, 12 hours, and 24 hours post-dose. All samples were collected manually into microtainer tubes containing EDTA as the anticoagulant and were processed to plasma by refrigerated centrifugation.
(§2) Plasma samples were extracted with 3 volumes of MeCN containing a suitable internal standard. Extracts were reconstituted into 3 volumes of water containing 1% formic acid, and analyzed via HPLC-coupled MS/MS. Plasma concentration-time data were analyzed using the Phoenix software (Pharsight Corp., St. Louis, Mo.) to calculate pharmacokinetic parameters.
(§3) Plasma clearance was determined from the intravenous arm of the study, and represents the rate at which plasma is cleared of drug. It is equal to the dose divided by the area under the plasma concentration-time curve. In addition to plasma clearance, it is also essential for an orally administered drug to reach efficacious systemic levels following oral delivery. Oral bioavailability is a measurement of plasma exposures following oral administration relative to exposures following intravenous administration.

NEP = target: T1, NEP (Rattus norvegicus, UniProt P07861); assay: PK-PD assay for NEP activity in conscious normotensive Sprague-Dawley rats (plasma cGMP after ANP bolus); type: in vivo, male Sprague-Dawley rats; conditions: rat plasma, 3 mg/kg oral, 15 min after IV ANP bolus (30 μg/kg); average of three determinations
T1 construct: Pre-cannulated male Sprague-Dawley rats (3 per compound evaluated) between 8 and 10 weeks of age were obtained from Harlan Laboratories; from tissue; host or cells: whole animal: conscious male Sprague-Dawley rats (Harlan Laboratories)
T1 sequence (P07861 1-750): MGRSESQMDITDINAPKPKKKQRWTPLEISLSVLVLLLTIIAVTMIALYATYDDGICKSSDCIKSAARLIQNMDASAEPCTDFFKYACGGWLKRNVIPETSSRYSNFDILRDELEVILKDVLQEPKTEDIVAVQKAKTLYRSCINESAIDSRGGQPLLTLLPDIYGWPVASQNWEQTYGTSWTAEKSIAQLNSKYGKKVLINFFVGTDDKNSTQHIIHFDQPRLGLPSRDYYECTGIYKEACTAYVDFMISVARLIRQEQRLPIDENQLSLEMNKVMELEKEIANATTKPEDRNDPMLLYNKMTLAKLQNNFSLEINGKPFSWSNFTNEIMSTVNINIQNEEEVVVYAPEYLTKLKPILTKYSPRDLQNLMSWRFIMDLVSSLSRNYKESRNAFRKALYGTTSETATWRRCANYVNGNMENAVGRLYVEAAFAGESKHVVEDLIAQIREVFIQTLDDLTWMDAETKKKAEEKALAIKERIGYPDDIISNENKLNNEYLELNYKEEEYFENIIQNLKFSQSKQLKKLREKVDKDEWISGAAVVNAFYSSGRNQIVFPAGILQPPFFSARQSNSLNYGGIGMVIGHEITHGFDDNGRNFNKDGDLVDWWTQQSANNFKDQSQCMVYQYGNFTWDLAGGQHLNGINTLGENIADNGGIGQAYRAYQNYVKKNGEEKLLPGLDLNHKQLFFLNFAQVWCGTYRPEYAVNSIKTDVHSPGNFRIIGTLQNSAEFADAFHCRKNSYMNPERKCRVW
Experimental: Appropriate masses of each test compound were added into a volume of vehicle (e.g. 5% sodium bicarbonate, 5% dextrose in H2O) such that the final concentration of each compound was appropriate to be dosed at 2 mL/kg. Note that a homogenous suspension was deemed to be acceptable for oral dosing.
Pre-cannulated male Sprague-Dawley rats (3 per compound evaluated) between 8 and 10 weeks of age were obtained from Harlan Laboratories (Indianapolis, Ind.). Rats received a single oral gavage of the dosing solution. The final dose was typically in the range of 3-30 mg/kg. Serial blood samples were harvested via the cannula implanted in the jugular vein at 3 minutes, 15 minutes, 35 minutes, 45 minutes, 1 hour, 2 hours, 4 hours, 6 hours, and 24 hours post-dose. Samples were collected into microtainer tubes containing EDTA as the anticoagulant and were processed to plasma by refrigerated centrifugation. Fifteen minutes prior to the 45 minute, 2 hour, 4 hour, 6 hour, and 24 hour samples, an IV bolus (30 μg/kg) of Atrial Natriuretic Peptide (ANP) was administered. […] Since binding of ANP to its receptor leads to activation of guanylyl cyclase and subsequent production of cyclic guanosine monophosphate (cGMP), the observation of elevated levels of cGMP (>20 nM) in plasma 15 minutes after the IV administration of the ANP bolus was interpreted as evidence of ongoing neprilysin inhibition. Elevated levels plasma cGMP levels 24 hours after dosing is an indicator of the duration pharmacologic effect, analogous to plasma clearance values as indicators of pharmacokinetic persistence.
Plasma samples were extracted with 3 volumes of MeCN containing a suitable internal standard. Extracts were reconstituted into 3 volumes of water containing 1% formic acid. Plasma cGMP and test compound concentrations were quantified in plasma samples by HPLC-coupled mass spectrometric detection.

[2] = IV/PO pharmacokinetic study in rats; type: in vivo, male Sprague-Dawley rats; set-up: AUC(0-t): concentration or dose not given beside the values; conditions: rat; for AUC(0-t) / bioavailability: male, Sprague-Dawley, plasma; for AUC(0-t): read-out: AUClast Mean; for bioavailability: PO vs IV AUClast; for CLlast Mean: dose divided by AUClast
Experimental: as §1
In the rat study, pre-cannulated male Sprague-Dawley rats (3 per route) between 8 and 10 weeks of age were obtained from Harlan Laboratories (Indianapolis, Ind.). Rats received either a single oral gavage or a single intravenous (via lateral tail vein) dose of the dosing solution. The final dose was typically 0.5-3 mg/kg. Serial blood samples were harvested via the cannula implanted in the jugular vein at 3 minutes, 15 minutes, 30 minutes, 1 hour, 2 hours, 4 hours, 6 hours, and 24 hours post-dose. Sampling was performed either manually or using automated blood samplers. Samples were collected into microtainer tubes containing EDTA as the anticoagulant and were processed to plasma by refrigerated centrifugation.
as §2, §3

[3] = target: T2, human neprilysin (EC 3.4.24.11; NEP) (Homo sapiens, UniProt P08473); assay: In vitro assay for the quantitation of inhibitor potency at human NEP; type: biochemical; conditions: recombinant human NEP, fluorogenic peptide substrate 10 μM, 37° C.; read-out: pKi at human NEP (converted)
T2 construct: purchased R&D Systems 1182-ZN
Experimental: The inhibitory activity at human neprilysin (EC 3.4.24.11; NEP) was determined as follows.
Recombinant human NEP was obtained commercially (R&D Systems, Minneapolis, Minn., catalog number 1182-ZN). The fluorogenic peptide substrate Mca-D-Arg-Arg-Leu-Dap-(Dnp)-OH (Medeiros et al. (1997) Braz. J. Med. Biol. Res. 30:1157-62; Anaspec, San Jose, Calif.) was used.
The assay was performed in 384-well white opaque plates at 37° C. using the fluorogenic peptide substrate at a concentration of 10 μM in Assay Buffer (50 mM HEPES, pH 7.5, 100 mM NaCl, 0.01% polyethylene glycol sorbitan monolaurate (Tween-20), 10 μM ZnSO4).
Test compounds were assayed over the range of concentrations from 10 μM to 20 pM. Test compounds were added to the enzyme and incubated for 30 minute at 37° C. prior to initiating the reaction by the addition of substrate. Reactions were terminated after 20 minutes of incubation at 37° C. by the addition of glacial acetic acid to a final concentration of 3.6% (v/v).
Plates were read on a fluorometer with excitation and emission wavelengths set to […]. Inhibition constants were obtained by nonlinear regression of the data using the equation (GraphPad Software, Inc., San Diego, Calif.): v=v0/[1+(I/K′)] where v is the reaction rate, v0 is the uninhibited reaction rate, I is the inhibitor concentration and K′ is the apparent inhibition constant.
The compounds were tested in this assay and found to have pKi values at human NEP as follows.

[4] = Dynamic moisture sorption (DMS) assessment; type: physicochemical
Experimental: DMS measurements were performed using a VTI atmospheric microbalance, SGA-100 system (VTI Corp., Hialeah, Fla. 33016). A weighed sample was used and the humidity was lowest possible value (close to 0% relative humidity) at the start of the analysis. The DMS analysis consisted of a scan rate of 5% relative humidity/step over the full humidity range of 5-90%. The DMS run was performed isothermally at 25° C.

T2 sequence (P08473 52-750 limits assumed): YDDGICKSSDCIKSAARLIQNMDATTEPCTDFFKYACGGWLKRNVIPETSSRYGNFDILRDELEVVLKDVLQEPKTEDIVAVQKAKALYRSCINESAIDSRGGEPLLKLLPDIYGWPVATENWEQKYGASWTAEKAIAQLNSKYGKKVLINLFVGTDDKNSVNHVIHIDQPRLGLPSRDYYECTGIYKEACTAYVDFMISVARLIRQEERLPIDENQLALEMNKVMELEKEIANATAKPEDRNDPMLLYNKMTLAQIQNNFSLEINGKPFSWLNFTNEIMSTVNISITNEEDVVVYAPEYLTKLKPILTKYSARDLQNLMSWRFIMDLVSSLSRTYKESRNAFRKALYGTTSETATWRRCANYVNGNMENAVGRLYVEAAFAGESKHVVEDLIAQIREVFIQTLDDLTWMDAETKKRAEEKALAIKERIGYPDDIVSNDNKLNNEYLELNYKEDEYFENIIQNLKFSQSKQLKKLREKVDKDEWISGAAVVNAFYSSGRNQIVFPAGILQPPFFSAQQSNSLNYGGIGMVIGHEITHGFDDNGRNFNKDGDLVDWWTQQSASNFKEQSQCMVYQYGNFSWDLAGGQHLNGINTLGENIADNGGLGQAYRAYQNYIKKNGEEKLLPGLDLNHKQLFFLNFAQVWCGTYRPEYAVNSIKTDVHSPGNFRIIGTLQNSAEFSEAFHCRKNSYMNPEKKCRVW

Row | CLlast Mean ([1]; IV) | AUC(0-t) ([1]; IV) | bioavailability [1] | AUC(0-t) ([1]; PO) | cGMP Concentration 24 hours After Dosing Mean (NEP) | AUC(0-t) ([2]; IV) | bioavailability [2] | AUC(0-t) ([2]; PO) | CLlast Mean ([2]; IV) | Ki [3] | total moisture gain ([4]; 5-70% relative humidity, 25° C.) | total moisture gain ([4]; 5-90% relative humidity, 25° C.) | hygroscopicity (DMS isotherm) ([4]; 25° C.) | solid form (PXRD) after sorption-desorption cycles ([4]; after two sorption-desorption cycles) | SMILES
1 | 10.8 mL/min/kg | 160 ng·h/mL | 99% | 160 ng·h/mL | 45 nM | 480 ng·h/mL | 20% | 110 ng·h/mL | 28.3 mL/min/kg | 126 pM | – | – | – | – | COc1cc(C(=O)N[C@H](Cc2ccc(-c3cc(Cl)ccc3F)cc2)C[C@@H](O)C(=O)O)on1 [Comparison Compound C2, (2R,4R)-5-(5′-Chloro-2′-fluorobiphenyl-4-yl)-2-hydroxy-4-[(3-methoxyisoxazole-5-carbonyl)amino]pentanoic Acid]
2 | 9.83 mL/min/kg | 170 ng·h/mL | 64% | 130 ng·h/mL | 47 nM | 1500 ng·h/mL | 60% | 880 ng·h/mL | 10 mL/min/kg | 794 pM | – | – | – | – | CCc1ncc(C(=O)N[C@H](Cc2ccc(-c3cc(Cl)ccc3F)cc2)C[C@@H](C)C(=O)O)o1 [Comparison Compound C3, (2R,4S)-5-(5′-Chloro-2′-fluorobiphenyl-4-yl)-4-[(2-ethyloxazole-5-carbonyl)amino]-2-methylpentanoic Acid]
3 | 25.7 mL/min/kg | 70 ng·h/mL | 42% | 30 ng·h/mL | 53 nM | 830 ng·h/mL | 60% | 500 ng·h/mL | 11.2 mL/min/kg | 501 pM | – | – | – | – | C[C@H](C[C@@H](Cc1ccc(-c2cc(Cl)ccc2F)cc1)NC(=O)c1cnco1)C(=O)O [Comparison Compound C4, (2R,4S)-5-(5′-Chloro-2′-fluorobiphenyl-4-yl)-2-methyl-4-[(oxazole-5-carbonyl)amino]pentanoic Acid]
4 | – | – | – | – | – | – | – | – | – | – | less than 0.025 % by weight | less than 0.235 % by weight | non-hygroscopic solid | no change in form | Cc1cnc(C(=O)N[C@H](Cc2ccc(-c3cc(Cl)ccc3F)cc2)C[C@@H](O)C(=O)O)o1 [Compound 1′, (2R,4R)-5-(5′-Chloro-2′-fluorobiphenyl-4-yl)-2-hydroxy-4-[(5-methyloxazole-2-carbonyl)amino]pentanoic Acid]
